# Measured values as given in patent US20090012103A1, “SUBSTITUTED HETEROCYCLIC COMPOUNDS” (priority 2007, published 2009).
# Legend:
# [1] = target: T1, wild-type human cardiac sodium channel, hNav1.5 (Homo sapiens, UniProt Q14524); test: Late INa screening assay (late sodium current, PatchXpress whole cell patch clamp); format: cell-based; details: compound at 10 μM; read-out: Late INa % blk
# [2] = target: T1, wild-type human cardiac sodium channel, hNav1.5; test: Peak INa screening assay (tonic block TB and use-dependent block UDB of peak sodium current); format: cell-based; details: compound at 10 μM
# hERG potassium channel = hERG potassium channel (Homo sapiens, UniProt Q12809); test: hERG screening assay (PatchXpress patch clamp, CHO cell line)
# [3] = tonic block, read-out: Tonic Peak INa % blk
# [4] = use-dependent block, read-out: UDB Peak INa % blk
# T1 sequence (Q14524 whole entry): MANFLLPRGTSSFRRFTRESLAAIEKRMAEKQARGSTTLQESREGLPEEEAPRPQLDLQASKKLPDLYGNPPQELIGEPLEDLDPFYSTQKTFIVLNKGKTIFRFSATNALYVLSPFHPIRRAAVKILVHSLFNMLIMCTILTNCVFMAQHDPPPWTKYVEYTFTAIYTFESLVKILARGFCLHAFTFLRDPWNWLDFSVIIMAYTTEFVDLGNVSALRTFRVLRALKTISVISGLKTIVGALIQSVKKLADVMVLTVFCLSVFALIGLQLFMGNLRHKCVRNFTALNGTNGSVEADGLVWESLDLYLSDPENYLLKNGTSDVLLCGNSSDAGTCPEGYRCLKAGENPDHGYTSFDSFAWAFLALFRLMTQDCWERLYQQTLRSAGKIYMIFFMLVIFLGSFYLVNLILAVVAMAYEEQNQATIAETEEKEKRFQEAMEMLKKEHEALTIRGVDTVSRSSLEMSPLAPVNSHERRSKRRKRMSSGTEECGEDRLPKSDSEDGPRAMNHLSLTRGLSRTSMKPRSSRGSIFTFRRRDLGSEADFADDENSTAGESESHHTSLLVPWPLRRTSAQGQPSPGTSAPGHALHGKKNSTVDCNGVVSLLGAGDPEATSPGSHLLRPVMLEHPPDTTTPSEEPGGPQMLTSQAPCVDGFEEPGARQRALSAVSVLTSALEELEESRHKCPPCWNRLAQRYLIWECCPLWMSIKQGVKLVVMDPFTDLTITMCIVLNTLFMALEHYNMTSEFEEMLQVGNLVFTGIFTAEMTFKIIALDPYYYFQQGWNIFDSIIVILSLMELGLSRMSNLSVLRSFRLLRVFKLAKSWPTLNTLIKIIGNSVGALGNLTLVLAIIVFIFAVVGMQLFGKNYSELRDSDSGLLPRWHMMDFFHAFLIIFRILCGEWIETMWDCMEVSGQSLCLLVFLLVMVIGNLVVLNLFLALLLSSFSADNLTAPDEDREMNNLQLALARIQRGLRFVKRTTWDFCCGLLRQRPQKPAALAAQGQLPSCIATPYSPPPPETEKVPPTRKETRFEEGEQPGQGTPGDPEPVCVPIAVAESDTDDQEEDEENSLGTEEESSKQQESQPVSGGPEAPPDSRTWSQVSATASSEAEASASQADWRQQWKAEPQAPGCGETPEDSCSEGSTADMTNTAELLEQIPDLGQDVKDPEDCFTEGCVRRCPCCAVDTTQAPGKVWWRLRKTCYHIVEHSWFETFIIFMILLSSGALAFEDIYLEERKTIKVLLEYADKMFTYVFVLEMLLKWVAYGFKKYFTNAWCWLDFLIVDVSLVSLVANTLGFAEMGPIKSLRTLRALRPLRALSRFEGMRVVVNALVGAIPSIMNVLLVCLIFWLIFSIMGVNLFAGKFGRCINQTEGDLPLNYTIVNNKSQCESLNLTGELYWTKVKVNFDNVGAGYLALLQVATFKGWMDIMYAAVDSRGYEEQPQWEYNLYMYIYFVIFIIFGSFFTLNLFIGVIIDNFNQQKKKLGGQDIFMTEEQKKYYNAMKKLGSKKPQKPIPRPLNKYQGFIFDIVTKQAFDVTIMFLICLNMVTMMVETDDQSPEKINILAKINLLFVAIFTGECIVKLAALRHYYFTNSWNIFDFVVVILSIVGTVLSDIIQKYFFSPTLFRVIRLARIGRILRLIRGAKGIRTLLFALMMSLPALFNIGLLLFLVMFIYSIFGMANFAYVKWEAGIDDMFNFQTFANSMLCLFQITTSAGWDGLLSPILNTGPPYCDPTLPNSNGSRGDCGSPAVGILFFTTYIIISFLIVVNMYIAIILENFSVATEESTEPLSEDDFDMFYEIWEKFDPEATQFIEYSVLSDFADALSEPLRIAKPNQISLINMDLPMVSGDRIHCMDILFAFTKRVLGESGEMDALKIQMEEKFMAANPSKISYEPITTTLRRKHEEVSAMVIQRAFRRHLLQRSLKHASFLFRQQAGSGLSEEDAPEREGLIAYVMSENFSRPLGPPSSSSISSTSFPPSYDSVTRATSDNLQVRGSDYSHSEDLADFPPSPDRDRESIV
# hERG potassium channel, sequence (Q12809 whole entry): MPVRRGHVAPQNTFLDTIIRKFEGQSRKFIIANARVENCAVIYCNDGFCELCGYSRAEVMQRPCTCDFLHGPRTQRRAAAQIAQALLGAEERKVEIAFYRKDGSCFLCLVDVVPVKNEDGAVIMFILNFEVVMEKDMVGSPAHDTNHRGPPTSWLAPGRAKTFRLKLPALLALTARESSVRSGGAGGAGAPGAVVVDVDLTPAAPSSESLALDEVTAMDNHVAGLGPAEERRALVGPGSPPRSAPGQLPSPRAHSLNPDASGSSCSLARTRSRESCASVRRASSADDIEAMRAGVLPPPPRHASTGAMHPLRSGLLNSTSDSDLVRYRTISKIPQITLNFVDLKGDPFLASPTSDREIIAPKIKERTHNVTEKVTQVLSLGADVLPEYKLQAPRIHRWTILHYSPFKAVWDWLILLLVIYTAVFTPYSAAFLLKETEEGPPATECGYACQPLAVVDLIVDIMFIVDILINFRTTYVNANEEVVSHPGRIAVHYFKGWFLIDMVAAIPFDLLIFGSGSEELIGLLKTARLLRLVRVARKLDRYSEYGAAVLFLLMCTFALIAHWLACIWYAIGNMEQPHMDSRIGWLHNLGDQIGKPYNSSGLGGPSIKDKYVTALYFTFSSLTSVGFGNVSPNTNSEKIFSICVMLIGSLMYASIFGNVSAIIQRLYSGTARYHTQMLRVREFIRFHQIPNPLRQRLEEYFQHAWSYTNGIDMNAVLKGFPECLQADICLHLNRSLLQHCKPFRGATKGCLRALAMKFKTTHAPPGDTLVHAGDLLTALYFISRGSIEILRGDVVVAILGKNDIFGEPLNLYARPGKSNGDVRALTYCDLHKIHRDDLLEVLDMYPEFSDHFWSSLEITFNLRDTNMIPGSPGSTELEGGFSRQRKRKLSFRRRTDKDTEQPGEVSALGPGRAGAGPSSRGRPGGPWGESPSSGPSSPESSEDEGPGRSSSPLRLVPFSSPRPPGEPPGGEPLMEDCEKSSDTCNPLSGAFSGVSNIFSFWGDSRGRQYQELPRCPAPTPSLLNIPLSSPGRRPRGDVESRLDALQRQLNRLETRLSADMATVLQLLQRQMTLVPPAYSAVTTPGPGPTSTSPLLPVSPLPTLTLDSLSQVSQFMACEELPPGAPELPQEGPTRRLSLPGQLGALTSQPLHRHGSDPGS
Compound,inhibition at 10 µM [1],"inhibition at 10 µM [2, 3]",hERG Patch Clamp hERG % blk (hERG potassium channel; 1 μM),hERG Patch Clamp hERG % blk (hERG potassium channel; 10 μM),"inhibition at 10 µM [2, 4]"
"C=CCOC(=O)C1=C(C)Nc2nnnn2C1c1cccc2ccccc12 (stereo not drawn) [PT-319, allyl 5-methyl-7-(naphthalen-1-yl)-4,7-dihydrotetrazolo[1,5-a]pyrimidine-6-carboxylate]",55.7%,4.5%,10.0%,41.0%,–
"N#CC1=C(N)OC2=C(C(=O)CC(c3ccccc3)C2)C1c1cccs1 (stereo not drawn) [PT-101, 2-amino-5-oxo-7-phenyl-4-(thiophen-2-yl)-5,6,7,8-tetrahydro-4H-chromene-3-carbonitrile]",49.3%,2.9%,19.0%,67.5%,–
"CC1=C(C(=O)OC(C)C)C(c2cccc3ccccc23)C(C(=O)OC(C)C)=C(C)N1 [PT-123, diisopropyl 2,6-dimethyl-4-(naphthalen-1-yl)-1,4-dihydropyridine-3,5-dicarboxylate]",86.9%,7%,10.0%,30.5%,–
"CC1=C(C(=O)OC(C)Cc2ccccc2)C(c2cccc3ccccc23)n2nnnc2N1 (stereo not drawn) [PT-064, 1-phenylpropan-2-yl 5-methyl-7-(naphthalen-1-yl)-4,7-dihydrotetrazolo[1,5-a]pyrimidine-6-carboxylate]",79.5%,7.2%,20.5%,37.5%,–
"CC1=C(C(=O)OC(C)C)C(c2ccc(Br)s2)C(C(=O)OC(C)C)=C(C)N1 [PT-124, diisopropyl 4-(5-bromothiophen-2-yl)-2,6-dimethyl-1,4-dihydropyridine-3,5-dicarboxylate]",86.2%,58.7%,11.5%,66.0%,–
"CC1=C(C(=O)OCc2ccccc2)C(c2ccccc2N2CCN(C)CC2)n2nnnc2N1 (stereo not drawn) [PT-340, benzyl 5-methyl-7-(2-(4-methylpiperazin-1-yl)phenyl)-4,7-dihydrotetrazolo[1,5-a]pyrimidine-6-carboxylate]",71.9%,89.1%,57.0%,93.5%,–
"COc1cc(Cl)ccc1COC(=O)C1=C(C)Nc2nnnn2C1c1c(C)cccc1C (stereo not drawn) [PT-307, 4-chloro-2-methoxybenzyl 7-(2,6-dimethylphenyl)-5-methyl-4,7-dihydrotetrazolo[1,5-a]pyrimidine-6-carboxylate]",84.9%,14%,10.0%,62.5%,16.6%
"CC1=C(C(=O)OCc2ccccc2)C(c2cc3ccccc3o2)n2nnnc2N1 (stereo not drawn) [PT-045, benzyl 7-(benzofuran-2-yl)-5-methyl-4,7-dihydrotetrazolo[1,5-a]pyrimidine-6-carboxylate]",92%,23.8%,10.0%,70.0%,–
"CCOC(=O)C1=C(C)NC(C)=C(C(=O)OCC)C1c1cc2ccccc2s1 [PT-114, diethyl 4-(benzo[b]thiophen-2-yl)-2,6-dimethyl-1,4-dihydropyridine-3,5-dicarboxylate]",85%,13.1%,20.9%,51.5%,–
"COc1ccc(C2C(C(=O)OCc3ccccc3)=C(C)Nc3nnnn32)c(C#N)c1 (stereo not drawn) [PT-389, benzyl 7-(2-cyano-4-methoxyphenyl)-5-methyl-4,7-dihydrotetrazolo[1,5-a]pyrimidine-6-carboxylate]",49.7%,-1.6%,23.5%,69.0%,–
"CCOC(=O)C1=C(C)N(C)C(C)=C(C(=O)OCC)C1c1cccc2ccccc12 [PT-191, diethyl 1,2,6-trimethyl-4-(naphthalen-1-yl)-1,4-dihydropyridine-3,5-dicarboxylate]",63.2%,0%,26.5%,68.0%,–
"CC1=C(C(=O)OC(c2ccccc2)C2CC2)C(c2cccc3ccccc23)n2nnnc2N1 (stereo not drawn) [PT-002, cyclopropyl(phenyl)methyl 5-methyl-7-(naphthalen-1-yl)-4,7-dihydrotetrazolo[1,5-a]pyrimidine-6-carboxylate]",53.1%,2.4%,11.5%,28.0%,–
"CC1=C(C(=O)OCc2ccccc2)C(c2cccc3ccccc23)n2nnnc2N1 (stereo not drawn) [PT-027, benzyl 5-methyl-7-(naphthalen-1-yl)-4,7-dihydrotetrazolo[1,5-a]pyrimidine-6-carboxylate]",74.9%,29.7%,14.0%,64.5%,6.8%
"COc1cc(Cl)ccc1COC(=O)C1=C(C)Nc2nnnn2C1c1c(Cl)cccc1Cl (stereo not drawn) [PT-306, 4-chloro-2-methoxybenzyl 7-(2,6-dichlorophenyl)-5-methyl-4,7-dihydrotetrazolo[1,5-a]pyrimidine-6-carboxylate]",70.4%,20.1%,10.0%,48.5%,9%
"CC1=C(C(=O)OCc2ccccc2)[C@@H](c2ccccc2-c2ccc(C)o2)n2nnnc2N1 [PT-235, (R)-benzyl 5-methyl-7-(2-(5-methylfuran-2-yl)phenyl)-4,7-dihydrotetrazolo[1,5-a]pyrimidine-6-carboxylate]",71.4%,28.1%,10.0%,41.5%,–
"CC1=C(C(=O)OCc2ccccc2)C(c2cccc3ccccc23)n2nnnc2N1C (stereo not drawn) [PT-195, benzyl 4,5-dimethyl-7-(naphthalen-1-yl)-4,7-dihydrotetrazolo[1,5-a]pyrimidine-6-carboxylate]",52.7%,1.7%,12.5%,49.0%,–
"CC1=C(C(=O)OCc2ccccc2)C(c2ccccc2N2CCN(S(C)(=O)=O)CC2)n2nnnc2N1 (stereo not drawn) [PT-339, benzyl 5-methyl-7-(2-(4-(methylsulfonyl)piperazin-1-yl)phenyl)-4,7-dihydrotetrazolo[1,5-a]pyrimidine-6-carboxylate]",51.4%,22.2%,11.5%,43.5%,9%
"N#CC1=C(N)OC2=C(C(=O)CCC2)C1c1ccc(Br)cc1 (stereo not drawn) [PT-096, 2-amino-4-(4-bromophenyl)-5-oxo-5,6,7,8-tetrahydro-4H-chromene-3-carbonitrile]",5.5%,-0.4%,15.0%,48.0%,–
"CC1=C(C(=O)OCc2ccccc2)C(c2c(-c3ccc(C(=O)O)cc3)sc3ccccc23)n2nnnc2N1 (stereo not drawn) [PT-294, 4-(3-(6-(benzyloxycarbonyl)-5-methyl-4,7-dihydrotetrazolo[1,5-a]pyrimidin-7-yl)benzo[b]thiophen-2-yl)benzoic acid]",67.2%,24.4%,12.5%,15.5%,–
"CC1=C(C(=O)OCc2ccccc2)C(c2ccc3ccccc3c2)c2c(C)n[nH]c2N1 (stereo not drawn) [PT-325, benzyl 3,6-dimethyl-4-(naphthalen-2-yl)-4,7-dihydro-1H-pyrazolo[3,4-b]pyridine-5-carboxylate]",53.8%,19.9%,10.0%,36.0%,24.3%
"CC1=C(C(=O)OC(C)C)C(c2ccc3ccccc3c2)C2=C(CCCC2=O)N1 (stereo not drawn) [PT-157, isopropyl 2-methyl-4-(naphthalen-2-yl)-5-oxo-1,4,5,6,7,8-hexahydroquinoline-3-carboxylate]",62.3%,15.3%,16.0%,37.1%,–
"CCOC(=O)C1=C(C)NC(C)=C(C(=O)OCC)C1c1csc2ccccc12 [PT-115, diethyl 4-(benzo[b]thiophen-3-yl)-2,6-dimethyl-1,4-dihydropyridine-3,5-dicarboxylate]",86%,17.2%,–,50.3%,–
"CCOC(=O)C1=C(C)NC(C)=C(C(=O)OCC)C1c1ccc2ccccc2c1 [PT-107, diethyl 2,6-dimethyl-4-(naphthalen-2-yl)-1,4-dihydropyridine-3,5-dicarboxylate]",91.9%,25.9%,11.5%,48.0%,–
